Laboratory results from US20260174707A1, “USE OF GNRH ANTAGONIST IN REGULATION AND CONTROL OF ESTRUS OF MAMMAL” (priority 2022, published 2026).
Marks after values point to notes of the source that are not given here. Where a SMILES comes first, the peptide text is derived from it. [ ]: non-standard residue; d: D form. The star is where a group is joined. dPhe(4-NHCONH2) = NC(=O)Nc1ccc(C[C@@H](N)C(=O)O)cc1; Dihydroorotyl(S) = O=C1C[C@@H](C(=O)*)NC(=O)N1; dPhe(4-Cl) = N[C@H](Cc1ccc(Cl)cc1)C(=O)O; Phe(4-NH2) = Nc1ccc(C[C@H](N)C(=O)O)cc1; d2Nal = N[C@H](Cc1ccc2ccccc2c1)C(=O)O; Lys(iPr) = CC(C)NCCCC[C@H](N)C(=O)O; d3Pal = N[C@H](Cc1cccnc1)C(=O)O

Experiments:
Type in all cases: in vivo
[1] = system: female mice; experiment: Oestrus inhibition in female mice (daily vaginal smear); conditions: only subcutaneous injection once
Procedure: Twenty-four 6-week-old female mice were selected and divided into 4 groups, with 6 mice in each group. The female mice in the negative control group were subcutaneously injected with normal saline, the female mice in the Abarelix group were subcutaneously injected with a dosage of 2 mg/kg/day for 8 consecutive days, the female mice in the Cetrorelix group were subcutaneously injected with a dosage of 2 mg/kg/day for 8 consecutive days, and the female mice in the Degarelix group were subcutaneously injected once with a dose of 2 mg/kg. After administration, vaginal smear experiments were performed on female mice every day to detect the stage of the oestrus cycle of female mice in each group. […] Thirty-two 6-week-old female mice were selected and divided into 4 groups, with 8 mice in each group. The female mice in the negative control group were subcutaneously injected with normal saline, and the female mice in the three Degarelix groups were subcutaneously injected with different dosages (0.4 mg/kg, 0.6 mg/kg and 1.0 mg/kg) of Degarelix once. After administration, vaginal smear experiments were performed on female mice every day to detect the oestrous condition.

[2] = system: female mice; experiment: Oestrus synchronization of female mice (Degarelix, then PMSG and HCG); conditions: 1.0 mg/kg sc; 5 units PMSG ip on 14th day; 5 units HCG ip after 46 hours
Procedure: It was discovered from the oestrus inhibition experiments that a dose of 1.0 mg/kg can inhibit oestrus of female mice for at least 15 days. Six 6-week-old female mice were selected for further oestrus synchronization experiments. The specific method was as follows: the female mice were subcutaneously injected 1.0 mg/kg of Degarelix, and intraperitoneally injected 5 units of PMSG on the 14th day after administration, and intraperitoneally injected 5 units of HCG after 46 hours, and then the oestrus of the female mice was detected.

[3] = system: sowpigs; experiment: Oestrus inhibition in sowpigs (oestrus performance observed); conditions: intramuscular injection once
Procedure: Thirty healthy adult sowpigs were selected and divided into a control group and Degarelix experimental groups, with 6 sowpigs in each group. The four Degarelix experimental groups were intramuscularly injected with different doses of Degarelix, namely 10 μg/kg body weight, 20 μg/kg body weight, 40 μg/kg body weight and 160 μg/kg body weight, respectively. The control group was intramuscularly injected with normal saline, and the oestrus performance (e.g., vulva performance and static reaction) of the sowpigs was observed and recorded to determine whether the sowpigs were in oestrus, and the time to restore oestrus after administration was recorded.

[4] = system: gilts; experiment: Oestrus synchronization of gilts (inhibitor, then PMSG); conditions: 1,000 units PMSG im on 20th day
Procedure: Comparison of experiments of administering Degarelix and altrenogest in achieving oestrus synchronization in gilts was performed. Twelve healthy adult gilts were selected and divided into two groups, namely an altrenogest group and a Degarelix group, with 6 gilts in each group. Among them, gilts in the altrenogest group were fed 20 mg of altrenogest every day for 18 consecutive days, while gilts in the Degarelix group were intramuscularly injected with 15 μg/kg body weight of Degarelix only on the first day. Both groups of gilts were intramuscularly injected with 1,000 units of PMSG on the 20th day after the first administration, then test whether the gilts in different treatment groups can achieve the estrus synchronization.

[5] = system: male dogs; experiment: Inhibiting effect on male dogs (serum testosterone, scrotum circumference, sexual behavior); conditions: 1.5 mg/kg subcutaneous
Procedure: Adult healthy male dogs with normal reproductive capacity were selected and divided into an experimental group and a control group. Each group of the animals was treated with subcutaneous injections, male dogs in the control group were injected with normal saline, and male dogs in the experimental group were injected with 1.5 mg/kg body weight of Degarelix, the treated animals in each group were fed and observed in the same way. Blood was collected from the animals regularly to measure and record the concentration of testosterone in serum (blood was collected and detected before the injection of drugs, and 1 h, 2 h, 4 h, 6 h, 8 h, 24 h, 48 h, 72h, 120 h and 168 h after the injection of drugs, and after that, the blood was collected every 168 h (1 week) until the end of the experiment), and scrotum circumference of male animals was measured and recorded regularly, sexual behavior of the male animals was observed and recorded, and compared with that of male animals in the control group.

[6] = system: female dogs; experiment: Inhibiting effect on female dogs in proestrus; conditions: 1.5 mg/kg subcutaneous
Procedure: Healthy female dogs in proestrus (the proestrus period was less than 3 days) were selected and divided into an experimental group and a control group. Each group of the animals was treated with subcutaneous injections, the female dogs in control group were injected with normal saline, and the female dogs in experimental group were injected with 1.5 mg/kg body weight of Degarelix, each group of the treated animals was fed and observed in the same way to detect the oestrus of the female dogs.

[7] = gilts, 15 μg/kg im only on first day
[8] = gilts fed 20 mg every day for 18 days

Compound | Time of inhibiting oestrus ([1]; low dose 0.4 mg/kg) | Time of inhibiting oestrus ([1]; middle dose 0.6 mg/kg) | Days on which female mice were concentrated in oestrus [2] | Time to restore oestrus after administration ([3]; 10 μg/kg) | Time to restore oestrus after administration ([3]; 20 μg/kg) | Time to restore oestrus after administration ([3]; 40 μg/kg) | Days after PMSG injection on which gilts were in oestrus [4, 7] | Number of days over which gilts were concentrated in oestrus [4, 7] | Oestrus of all gilts after administration of exogenous hormones [4, 7] | Sexual behaviour [5] | Scrotal circumference ([5]; after a period of treatment) | Erection and semen collection ([5]; after treatment) | Testosterone concentration in serum ([5]; compared to control group) | Oestrus stage by vaginal smear [6] | Oestrus symptoms (vulvar redness and swelling, vaginal discharge of mucus) [6] | Days after PMSG injection on which gilts were in oestrus [4, 8] | Number of days over which gilts were concentrated in oestrus [4, 8] | Oestrus of all gilts after administration of exogenous hormones [4, 8]
CC(=O)N[C@H](Cc1ccc2ccccc2c1)C(=O)N[C@H](Cc1ccc(Cl)cc1)C(=O)N[C@H](Cc1cccnc1)C(=O)N[C@@H](CO)C(=O)N[C@@H](Cc1ccc(NC(=O)[C@@H]2CC(=O)NC(=O)N2)cc1)C(=O)N[C@H](Cc1ccc(NC(N)=O)cc1)C(=O)N[C@@H](CC(C)C)C(=O)N[C@@H](CCCCNC(C)C)C(=O)N1CCC[C@H]1C(=O)N[C@H](C)C(N)=O [Degarelix] (Ac-[d2Nal][dPhe(4-Cl)][d3Pal]S[Phe(4-NH2)](Dihydroorotyl(S))[dPhe(4-NHCONH2)]L[Lys(iPr)]P[dA]-NH2) | 7.13 ± 2.09^b days | 8.50 ± 3.54^bc days | 17th and 18th days | 21.50 ± 2.45^b days | 38.83 ± 2.37^c days | 53.83 ± 3.16^d days | 3rd to the 5th day | 3 days | in oestrus within one week | significantly reduced | significantly reduced | abnormal erections and no semen could be collected | decreased significantly | quickly changed from proestrus to diestrus | gradually disappeared 3 days after the injection |  |  | 
C=CC[C@]1(O)CC[C@H]2[C@@H]3CCC4=CC(=O)CCC4=C3C=C[C@@]21C [altrenogest] |  |  |  |  |  |  |  |  |  |  |  |  |  |  |  | 3rd day to the 6th day | 4 days | in oestrus within one week
